Experimental data reported in ChEMBL document CHEMBL1201862, “PubChem BioAssay data set” (2004).
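Exposure lasted 48 hours, with cells grown in 96-well plates and compounds tested at five concentrations. GI50 marks 50% less growth.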 Active and inactive are the calls of the source. No stated cut-off is given here; in the data, active = GI50 up to about 1.1 µM and inactive = higher.

What was measured:
Assay in all cases: NCI tumour cell line growth inhibition, 48 h
786-0 = system: 786-0
A498 = system: A498
A549 = system: A549
ACHN = system: ACHN
BT-549 = system: BT-549
CAKI-1 = system: CAKI-1
CCRF-CEM = system: CCRF-CEM
COLO 205 = system: COLO 205
DU-145 = system: DU-145
EKVX = system: EKVX
HCC 2998 = system: HCC 2998
HCT-116 = system: HCT-116
HCT-15 = system: HCT-15
HL-60 = system: HL-60
HOP-62 = system: HOP-62
HOP-92 = system: HOP-92
HT-29 = system: HT-29
Hs-578T = system: Hs-578T
IGROV-1 = system: IGROV-1
K562 = system: K562
KM12 = system: KM12
LOX IMVI = system: LOX IMVI
M14 = system: M14
MCF7 = system: MCF7
MDA-MB-231 = system: MDA-MB-231
MDA-MB-435 = system: MDA-MB-435
MOLT-4 = system: MOLT-4
Malme-3M = system: Malme-3M
NCI-H226 = system: NCI-H226
NCI-H23 = system: NCI-H23
NCI-H460 = system: NCI-H460
NCI-H522 = system: NCI-H522
NCI/ADR-RES = system: NCI/ADR-RES
OVCAR-3 = system: OVCAR-3
OVCAR-4 = system: OVCAR-4
OVCAR-5 = system: OVCAR-5
OVCAR-8 = system: OVCAR-8
PC-3 = system: PC-3
RPMI-8226 = system: RPMI-8226
RXF 393 = system: RXF 393
SF-268 = system: SF-268
SF-295 = system: SF-295
SF-539 = system: SF-539
SK-MEL-28 = system: SK-MEL-28
SK-MEL-2 = system: SK-MEL-2
SK-MEL-5 = system: SK-MEL-5
SK-OV-3 = system: SK-OV-3
SN12C = system: SN12C
SNB-19 = system: SNB-19
SNB-75 = system: SNB-75
SR = system: SR
SW-620 = system: SW-620
T47D = system: T47D
TK-10 = system: TK-10
U-251 = system: U-251
UACC-257 = system: UACC-257
UACC-62 = system: UACC-62
UO-31 = system: UO-31

With `COC(=O)C1(C)CC2C(C)(CCC3(C)C4=CC=C5C(=CC(=O)C(O)=C5C)C4(C)CCC23C)CC1O` (centres undefined) the GI50 (786-0) was 0.226 µM (active), the GI50 (A498) was 1.93 µM (inactive) and the GI50 (A549) was 2.29 µM (inactive). The GI50 (ACHN) was 0.45 µM (active), the GI50 (BT-549) was 0.851 µM (active) and the GI50 (CAKI-1) was 0.902 µM (active). For the same molecule, the GI50 (CCRF-CEM) was 0.157 µM (active), the GI50 (COLO 205) was 0.627 µM (active) and the GI50 (DU-145) was 1.36 µM (inactive). The GI50 (EKVX) was 1.3 µM (inactive), the GI50 (HCC 2998) was 1.56 µM (inactive) and the GI50 (HCT-116) was 0.564 µM (active). For the same molecule, the GI50 (HCT-15) was 334 nM, the GI50 (HL-60) was 0.216 µM (active) and the GI50 (HOP-62) was 1.86 µM (inactive). The GI50 (HOP-92) was 0.635 µM (active), the GI50 (HT-29) was 0.634 µM (active) and the GI50 (Hs-578T) was 1.07 µM (active). For the same molecule, the GI50 (IGROV-1) was 0.331 µM (active), the GI50 (K562) was 0.284 µM (active) and the GI50 (KM12) was 1.57 µM (inactive). The GI50 (LOX IMVI) was 0.333 µM (active), the GI50 (M14) was 1.26 µM (inactive) and the GI50 (MCF7) was 1.6 µM (inactive). The GI50 (MDA-MB-231) was 0.577 µM (active), the GI50 (MDA-MB-435) was 0.942 µM (active) and the GI50 (MOLT-4) was 0.285 µM (active). For the same molecule, the GI50 (Malme-3M) was 762 nM (active), the GI50 (NCI-H226) was 2.12 µM (inactive) and the GI50 (NCI-H23) was 2.05 µM (inactive). For the same molecule, the GI50 (NCI-H460) was 1.79 µM (inactive), the GI50 (NCI-H522) was 0.2 µM (active) and the GI50 (NCI/ADR-RES) was 1.06 µM (active). The GI50 (OVCAR-3) was 0.774 µM (active), the GI50 (OVCAR-4) was 1.61 µM (inactive) and the GI50 (OVCAR-5) was 1.73 µM (inactive). The GI50 (OVCAR-8) was 0.822 µM (active), the GI50 (PC-3) was 1.13 µM (inactive) and the GI50 (RPMI-8226) was 0.283 µM (active). For the same molecule, the GI50 (RXF 393) was 0.429 µM (active), the GI50 (SF-268) was 0.863 µM (active) and the GI50 (SF-295) was 1.78 µM (inactive). The GI50 (SF-539) was 1.1 µM (active), the GI50 (SK-MEL-28) was 0.521 µM (active) and the GI50 (SK-MEL-2) was 1.68 µM (inactive). For the same molecule, the GI50 (SK-MEL-5) was 1.66 µM (inactive), the GI50 (SK-OV-3) was 2.07 µM (inactive) and the GI50 (SN12C) was 1.49 µM (inactive). For the same molecule, the GI50 (SNB-19) was 1.59 µM (inactive), the GI50 (SNB-75) was 1.92 µM (inactive) and the GI50 (SR) was 0.203 µM (active). For the same molecule, the GI50 (SW-620) was 0.405 µM (active), the GI50 (T47D) was 0.495 µM (active) and the GI50 (TK-10) was 0.624 µM (active). The GI50 (U-251) was 1.09 µM (active), the GI50 (UACC-257) was 1.72 µM (inactive) and the GI50 (UACC-62) was 0.962 µM (active). The GI50 (UO-31) was 1.35 µM (inactive).

With `O=C(Nc1ccccc1C(=O)NCc1ccccc1)/C(=C/c1ccccc1)NC(=O)c1ccccc1` the GI50 (786-0) was 47.6 µM (inactive), the GI50 (A498) was > 100 µM (inactive) and the GI50 (A549) was > 100 µM (inactive). For the same molecule, the GI50 (ACHN) was > 100 µM (inactive), the GI50 (BT-549) was > 100 µM (inactive) and the GI50 (CAKI-1) was > 100 µM (inactive). The GI50 (CCRF-CEM) was > 100 µM (inactive), the GI50 (COLO 205) was > 100 µM (inactive) and the GI50 (DU-145) was > 100 µM (inactive). For the same molecule, the GI50 (EKVX) was > 100 µM (inactive), the GI50 (HCC 2998) was > 100 µM (inactive) and the GI50 (HCT-116) was > 100 µM (inactive). For the same molecule, the GI50 (HCT-15) was > 100000 nM, the GI50 (HL-60) was > 100 µM (inactive) and the GI50 (HOP-62) was > 100 µM (inactive). The GI50 (HOP-92) was > 100 µM (inactive), the GI50 (HT-29) was > 100 µM (inactive) and the GI50 (Hs-578T) was 63.1 µM (inactive). For the same molecule, the GI50 (IGROV-1) was > 100 µM (inactive), the GI50 (K562) was > 100 µM (inactive) and the GI50 (KM12) was > 100 µM (inactive). The GI50 (LOX IMVI) was > 100 µM (inactive), the GI50 (M14) was > 100 µM (inactive) and the GI50 (MCF7) was > 100 µM (inactive). For the same molecule, the GI50 (MDA-MB-231) was > 100 µM (inactive), the GI50 (MDA-MB-435) was > 100 µM (inactive) and the GI50 (MOLT-4) was 80.7 µM (inactive). For the same molecule, the GI50 (NCI-H226) was > 100 µM (inactive), the GI50 (NCI-H23) was > 100 µM (inactive) and the GI50 (NCI-H522) was > 100 µM (inactive). For the same molecule, the GI50 (NCI/ADR-RES) was 62.2 µM (inactive), the GI50 (OVCAR-3) was > 100 µM (inactive) and the GI50 (OVCAR-4) was 49.3 µM (inactive). The GI50 (OVCAR-5) was > 100 µM (inactive), the GI50 (OVCAR-8) was > 100 µM (inactive) and the GI50 (PC-3) was > 100 µM (inactive). For the same molecule, the GI50 (RPMI-8226) was > 100 µM (inactive), the GI50 (RXF 393) was > 100 µM (inactive) and the GI50 (SF-268) was > 100 µM (inactive). The GI50 (SF-295) was > 100 µM (inactive), the GI50 (SF-539) was > 100 µM (inactive) and the GI50 (SK-MEL-28) was > 100 µM (inactive). The GI50 (SK-MEL-2) was > 100 µM (inactive), the GI50 (SK-MEL-5) was > 100 µM (inactive) and the GI50 (SK-OV-3) was > 100 µM (inactive). For the same molecule, the GI50 (SN12C) was > 100 µM (inactive), the GI50 (SNB-19) was > 100 µM (inactive) and the GI50 (SNB-75) was 92.7 µM (inactive). For the same molecule, the GI50 (SR) was > 100 µM (inactive), the GI50 (SW-620) was > 100 µM (inactive) and the GI50 (T47D) was > 100 µM (inactive). For the same molecule, the GI50 (TK-10) was > 100 µM (inactive), the GI50 (U-251) was > 100 µM (inactive) and the GI50 (UACC-257) was > 100 µM (inactive). For the same molecule, the GI50 (UACC-62) was > 100 µM (inactive) and the GI50 (UO-31) was > 100 µM (inactive).
